ChEMBL document CHEMBL1149213, “Porphyrin-DNA cross-linking agent hybrids: chemical synthesis and biological studies” (Bioorg Med Chem Lett, 2004)

Test system: THP-1
Assay: Cytotoxicity was determined against THP-1 cell line as reduction in cell number
Format: functional, cell-based
Conditions: Homo sapiens

| SMILES | IC50 [nM] |
| --- | --- |
| C[N+](C)(C)Cc1cc(-c2c3nc(c(-c4ccccc4)c4ccc([nH]4)c(-c4ccc(O)c(C[N+](C)(C)C)c4)c4ccc([nH]4)c(-c4ccccc4)c4nc2C=C4)C=C3)ccc1O | 61.8 |
| C[N+](C)(C)Cc1cc(-c2c3nc(cc4ccc([nH]4)c(-c4ccc(O)c(C[N+](C)(C)C)c4)c4nc(cc5ccc2[nH]5)C=C4)C=C3)ccc1O | 5.6 |
| CCc1c2nc(c(-c3ccc(O)c(C[N+](C)(C)C)c3)c3ccc([nH]3)c(CC)c3ccc([nH]3)c(-c3ccc(O)c(C[N+](C)(C)C)c3)c3nc1C=C3)C=C2 | 88.4 |
| CCc1c2nc(c(-c3ccc(OC)c(C[N+](C)(C)C)c3)c3ccc([nH]3)c(CC)c3ccc([nH]3)c(-c3ccc(OC)c(C[N+](C)(C)C)c3)c3nc1C=C3)C=C2 | 1400 |
